As a reminder, the pIC50 is the negative decadic logarithm of the IC50, by convention in mol/L.

pIC50: −log10 of the molar value. Bounds are passed on as bounds.

The values below come from patent US20240148895A1, “ANTIBODY-DRUG CONJUGATE” (Eisai R&D Management Co., Ltd., priority 2022, published 2024).

The assay has as its system AsPC-1/Cas9 cell line (human pancreatic cancer cell line AsPC-1). Description: AsPC-1/Cas9 growth inhibition assay. In kind it is cell-based. Particulars: 5 days culture, CellTiter Glo 2.0, read-out: IC50 (Absolute IC50, 50% inhibition of cell growth). As to the method: Human pancreatic cancer cell line AsPC-1 (ATCC Number CRL1682) was infected with Edit-R Lentiviral hCMV-Blast-Cas9 Nuclease Particle (Dharmacon, VCAS10124) in the presence of 8 μg/ml of Hexadimethrine bromide (Sigma, H9268), and after 24 hours it was exposed to 10 μg/ml of Blastcidin S (Thermo, A11139) to remove the uninfected cells, thereby establishing an AsPC-1/Cas9 cell line. The cells were maintenance cultured in a 5% CO2 incubator (37° C.) using RPMI-1640 (FujiFilm-Wako Pure Chemical Industries) containing 10% fetal bovine serum (FBS: SIGMA 173012) and penicillin/streptomycin (FujiFilm-Wako Pure Chemical Industries) (hereunder referred to simply as “culture medium”). After adding 25 μL of AsPC-1/Cas9 cell suspension prepared to 3.2×10^4 cells/mL using culture medium into each well of a 384-well plate (Greiner 781091), the cells were cultured overnight in a 5% CO2 incubator (37° C.). On the following day, 25 μL of the test substance diluted with culture medium was added to each well, and culturing was continued for 5 days in a 5% CO2 incubator (37° C.). Next, 25 μL of CellTiter Glo™ 2.0 (Promega) was added to each well, and the plate contents were mixed for 5 minutes using a plate mixer. The plate was stationed for 10 minutes at room temperature while shielded from light, and then the luminous intensity was measured with an ENVISION™ (Perkin-Elmer). The luminescence value of the wells with addition of test substance was determined as a relative value, with 100% as the luminescence value of the wells with cells but without addition of the test substance and 0% as the luminescence value of the wells without cells. A plot of test substance concentration against luminescence value % approximated a 4-parameter logistic curve, and the test substance concentration necessary for 50% inhibition of cell growth (Absolute IC50) was calculated, and is shown in Table 10. In Table 10, the antibodies listed as “CEACAM6_#84.7” are the anti-CEACAM6 antibody of Example 301-1, the antibodies listed as “003” are the anti-folate receptor α antibody of Example 301-2, and the antibodies listed as “345A12” are the anti-mesothelin antibody of Example 301-3.
According the same method as in the AsPC-1/Cas9 growth inhibition assay described in Example 313 above, the test substance concentration necessary for 50% inhibition of cell growth (Absolute IC50) in the ADC described in Example 318 was calculated and is shown in Table 12.
For the compound “2-Cyclopropoxy-2-(2-(4-(((2S,5R)-2,5-dimethylpiperazin-1-yl)methyl)piperidin-1-yl)-6-(4-methoxy-1-methyl-6-oxo-1,6-dihydropyridin-3-yl)quinazolin-4-yl)-2-phenylethyl methyl(2-(methylamino)ethyl)carbamate [Example 34]”, the pIC50 was 10.08.

Take “4-(2-(4-Amino-4-methyl-[1,4′-bipiperidin]-1′-yl)-4-(1-cyclopropoxy-2-hydroxy-1-phenylethyl)quinazolin-6-yl)-6-methyl-1,6-dihydro-7H-pyrrolo[2,3-c]pyridin-7-one [Example 27]”: the pIC50 is greater than 10.82.

As for `CCn1c(=O)nc(C(CO)(OC)c2ccccc2)c2cc(-c3cc(C)c(=O)n(C)c3)ccc21` (racemic) [Example 17, 6-(1,5-Dimethyl-6-oxo-1,6-dihydropyridin-3-yl)-1-ethyl-4-(2-hydroxy-1-methoxy-1-phenylethyl)quinazoline-2(1H)-one], the pIC50 was 10.40.

Regarding `Cc1cc(-c2ccc3nc(NS(C)(=O)=O)nc(C(CO)(CC4CC4)c4ccccn4)c3c2)cn(C)c1=O` (stereo not drawn) [Example 5, N-(4-(1-Cyclopropyl-3-hydroxy-2-(pyridin-2-yl)propan-2-yl)-6-(1,5-dimethyl-6-oxo-1,6-dihydropyridin-3-yl)quinazolin-2-yl)methanesulfonamide], the pIC50 is 10.46.

Turning to `Cc1cc(-c2ccc3nc(N=S(C)(C)=O)nc(C(CO)(CC4CCOCC4)c4ccccc4)c3c2)cn(C)c1=O` (stereo not drawn) [Example 6], the pIC50 was 10.54.

On to `Cc1cc(-c2ccc3nc(N=S(C)(C)=O)nc(C(CO)(CC(C)C)c4ccccc4)c3c2)cn(C)c1=O` (stereo not drawn) [Example 7, 5-(2-((Dimethyl(oxo)-16-sulfanylidene)amino)-4-(1-hydroxy-4-methyl-2-phenylpentan-2-yl)quinazolin-6-yl)-1,3-dimethylpyridin-2(1H)-one], for which the pIC50 was 10.29.

Take `Cc1cc(-c2ccc3nc(NS(C)(=O)=O)nc(C(CO)(CC4CCC4)c4ccccc4)c3c2)cn(C)c1=O` (stereo not drawn) [Example 8, N-(4-(1-Cyclobutyl-3-hydroxy-2-phenylpropan-2-yl)-6-(1,5-dimethyl-6-oxo-1,6-dihydropyridin-3-yl)quinazolin-2-yl)methanesulfonamide]: the negative logarithm of the IC50 (pIC50) is 10.37.

Take `Cc1cc(-c2ccc3cc(N=S(C)(C)=O)nc(C(CO)(OC4CC4)c4ccccc4)c3c2)cn(C)c1=O` (stereo not drawn) [Example 9, 5-(1-(1-Cyclopropoxy-2-hydroxy-1-phenylethyl)-3-((dimethyl(oxo)-16-sulfanylidene)amino)isoquinolin-7-yl)-1,3-dimethylpyridin-2(1H)-one]: the pIC50 was 10.12.

Take `Cc1cc(-c2ccc3nc(NC(=O)N4CC(O)C4)nc(C(CO)(OC4CC4)c4ccccc4)c3c2)cn(C)c1=O` (stereo not drawn) [Example 10, N-(4-(1-Cyclopropoxy-2-hydroxy-1-phenylethyl)-6-(1,5-dimethyl-6-oxo-1,6-dihydropyridin-3-yl)quinazolin-2-yl)-3-hydroxyazetidine-1-carboxamide]: the pIC50 was 10.44.

`CCCC(CO)(c1ccccn1)c1[nH]c(=O)cc2ccc(-c3cc(C)c(=O)n(C)c3)cc12` (stereo not drawn) [Example 11, 7-(1,5-Dimethyl-6-oxo-1,6-dihydropyridin-3-yl)-1-(1-hydroxy-2-(pyridin-2-yl)pentan-2-yl)isoquinoline-3(2H)-one]: the pIC50 was 10.41.

As to `CCOCCC(CO)(c1ccccn1)c1nc(N)nc2ccc(-c3cc(C)c(=O)n(C)c3)cc12` (stereo not drawn) [Example 12, 5-(2-Amino-4-(4-ethoxy-1-hydroxy-2-(pyridin-2-yl)butan-2-yl)quinazolin-6-yl)-1,3-dimethylpyridin-2(1H)-one], the pIC50 was 10.42.

In the case of `Cc1cc(-c2ccc3nc(N=S(C)(C)=O)nc(C(CO)(OC4CCC4)c4ccccc4)c3c2)cn(C)c1=O` (stereo not drawn) [Example 13, 5-(4-(1-Cyclobutoxy-2-hydroxy-1-phenylethyl)-2-((dimethyl (oxo)-16-sulfanylidene)amino)quinazolin-6-yl)-1,3-dimethylpyridin-2(1H)-one], the pIC50 was 10.37.

`CN1CCC(Oc2nc(C(CO)(OC3CC3)c3ccccc3)c3cc(-c4cn(C)c(=O)c5c4COC5)ccc3n2)CC1` (stereo not drawn) [Example 14, 7-(4-(1-Cyclopropoxy-2-hydroxy-1-phenylethyl)-2-((1-methylpiperidin-4-yl)oxy)quinazolin-6-yl)-5-methyl-3,5-dihydrofuro[3,4-c]pyridine-4(1H)-one]: the pIC50 was 10.42.

Take `Cc1cc(-c2ccc3nc(N)nc(C(CO)(OC4CC4)c4cccs4)c3c2)cn(C)c1=O` (stereo not drawn) [Example 15, 5-(2-Amino-4-(1-cyclopropoxy-2-hydroxy-1-(thiophen-2-yl)ethyl)quinazolin-6-yl)-1,3-dimethylpyridin-2(1H)-one]: the pIC50 was 10.41.

In the case of `CCOC(CO)(c1ccccc1)c1nc(C(N)=O)cc2ccc(-c3cc(C)c(=O)n(C)c3)cc12` (stereo not drawn) [Example 16, 7-(1,5-Dimethyl-6-oxo-1,6-dihydropyridin-3-yl)-1-(1-ethoxy-2-hydroxy-1-phenylethyl)isoquinoline-3-carboxamide], the pIC50 is 10.46.

In the case of `Cc1cc(-c2ccc3nc(CNS(C)(=O)=O)nc(C(CO)(OC4CC4)c4ccccc4)c3c2)cn(C)c1=O` (stereo not drawn) [Example 18, N-((4-(1-Cyclopropoxy-2-hydroxy-1-phenylethyl)-6-(1,5-dimethyl-6-oxo-1,6-dihydropyridin-3-yl)quinazolin-2-yl)methyl)methanesulfonamide], the pIC50 is 10.33.

As to `Cc1cc(-c2ccc3nc(N=S(C)(C)=O)nc(C(CO)(OC(C)C)c4ccccc4)c3c2)cn(C)c1=O` (stereo not drawn) [Example 19, 5-(2-((Dimethyl(oxo)-16-sulfanylidene)amino)-4-(2-hydroxy-1-isopropoxy-1-phenylethyl)quinazolin-6-yl)-1,3-dimethylpyridin-2(1H)-one], the pIC50 was 10.51.

Take `Cc1cc(-c2ccc3nc(N)nc(C(CO)(CC4CC4)c4cccnc4)c3c2)cn(C)c1=O` (stereo not drawn) [Example 20, 5-(2-Amino-4-(1-cyclopropyl-3-hydroxy-2-(pyridin-3-yl)propan-2-yl)quinazolin-6-yl)-1,3-dimethylpyridin-2(1H)-one]: the pIC50 is 10.46.

For `COc1ccc(CC(CO)(c2ccccn2)c2nc(N=S(C)(C)=O)nc3ccc(-c4cc(C)c(=O)n(C)c4)cc23)cc1F` (stereo not drawn) [Example 21, 5-(2-((Dimethyl(oxo)-16-sulfanylidene)amino)-4-(1-(3-fluoro-4-methoxyphenyl)-3-hydroxy-2-(pyridin-2-yl)propan-2-yl)quinazolin-6-yl)-1,3-dimethylpyridin-2(1H)-one], the negative-log IC50 (pIC50) is 10.21.

For `COCCC(CO)(c1ccccc1)c1nc(N=S(C)(C)=O)nc2ccc(-c3cc(C)c(=O)n(C)c3)cc12` (stereo not drawn) [Example 22, 5-(2-((Dimethyl(oxo)-16-sulfanylidene)amino)-4-(1-hydroxy-4-methoxy-2-phenylbutan-2-yl)quinazolin-6-yl)-1,3-dimethylpyridin-2(1H)-one], the pIC50 is 8.80.

Turning to `Cc1cc(-c2ccc3nc(N=S(C)(C)=O)nc(C(CO)(Cc4ccccc4)c4ccccc4)c3c2)cn(C)c1=O` (stereo not drawn) [Example 23, 5-(2-((Dimethyl(oxo)-16-sulfanylidene)amino)-4-(1-hydroxy-2,3-diphenylpropan-2-yl)quinazolin-6-yl)-1,3-dimethylpyridin-2(1H)-one], the pIC50 is 10.47.
